According to patent publication US7081465B2, “Alpha-substituted naphthyloxy omega-substituted alky/aryl amino-substituted alkane derivatives as agent for treatment or prophylaxis of diabetes and related metabolic disorders” (Council of Scientific and Industrial Research, priority 2003, dated 2006):
Marks after values point to notes of the source that are not given here.

Experiments:
[1] = test system: HFD fed dyslipemic hamsters; experiment: Dyslipemic hamster model (fructose rich high fat diet); type: in vivo, golden syrian hamster
Excerpt: (b) Dyslipemic Hamster Model: Male golden syrian hamster weighing 120–130 gm were divided into control, dyslipemic and dyslipemic plus drug treated group of 8 animals in each.
Dyslipemia was produced by feeding with fructose rich high fat diet(HFD). Dyslipemic hamsters had free acccess to HFD and water ad. Lib for 10 days (day 1 to day 10). Compound 1 was macerated in vehicle containing 0.2% CMC+0.4% tween-80 in distilled water and fed orally at the dose of 300[…] mole/kg from day 4 to day 10 simultaneously with HFD feeding to hamster. Control animals received same amount of vehicle. At the end of the experiment on 10th day, blood was withdrawn and plasma was used for assay of triglyceride(Tg), cholesterol(chol), high density lipoprotein(HDL), glucose, glycerol and free fatty acids(FFA) by standard spectrophotometric methods on auto analyser. In another set of experiment antidyslipemic activity of fenofibrate at the dose of 1000[…] mole/kg was evaluated.

[2] = test system: STZ-induced diabetic rats; experiment: Streptozotocin-induced diabetic rat model, single-dose effect on blood glucose; type: in vivo, Sprague Dawley rats; conditions: 100 mg/kg; for lowering on blood glucose in STZ-induced diabetic rats: 1 to 7 hours post drug administration; for start of blood glucose lowering post drug administration: STZ-induced diabetic rats
Procedure: Streptozotocin-Induced Diabetic Rat Model:
Single-dose effect; Sprague Dawley strain male albino rats of average body weight 160±20 g were selected for this study. A calculated amount of the fresh solution of STZ dissolved in 100 mM citrate buffer (ph 4.5) was injected to overnight fasted rats (60 mg/Kg) intraperitoneally. Blood was checked for glucose content 48 h later by glucometer & animals showing blood glucose profile above 250 mg/dl were selected and were divided into different groups. Blood-glucose levels were again tested at 1, 2, 3, 4, 5, 6, 7 and 24 h post test sample/drug administration. Food but not water was withdrawn from the cages during the experiment.
The effect of Test compound 1 and standard antidiabetic drug Glybenclamide and gliclazide on blood glucose lowering in STZ-induced diabetic rats were determined. […] The lowering started from 1-hour that persisted up to 7-hours post drug administration.

normal rats = experiment: Hypoglycaemic activity on OGTT of normal rats (sucrose-loaded rat model); type: in vivo, Sprague Dawley rats; conditions: 100-mg/kg, oral, 120 min post glucose load
Procedure: Sucrose-Loaded Rat Model:
Overnight fasted male Sprague Dawley rats were used for the sucrose-loaded experiment. Blood was collected at ‘0’ min from the tail vein of the animals. After the ‘0’ min blood collection, samples/drugs were given to the test group consisting of 5 rats by oral gavage at a dose of 100 mg/kg. Half an hour post test sample treatment, a sucrose-load of 10.0 gm/kg body weight was given to each rat. The blood was collected at 30, 60, 90 & 120 min post sucrose-load.
The antidiabetic effect of test compounds (compound no. 1 and 4) and standard drug Glybenclamide, Gliclazide on OGTT of normal rats was determined.

[3] = test system: hyperlipedemic rats (triton WR-1339); experiment: Lipid lowering activity, Triton model (triton WR-1339 induced hyperlipedemia); type: in vivo, Charles foster rats; conditions: 100 mg/kg oral simultaneously with triton, plasma after 18 hrs, vs hyperlipemic group
Procedure: (a)Triton Model: Male Charles foster rats weighing 200–225 g were divided into control, hyperlipedemic and hyperlipedemic plus drug treated groups containing six animals each. Hyperlipedemia was induced by administration of triton WR-1339(400 mg/kg,IP). All animals were maintained on standard pellet diet and water ad lib. Test compound no. 1 and Gugulipid (standard drug) were macerated with 2% aqueous gum acacia and this suspension was fed orally at the dose of 100 mg/kg simultaneously with triton. The animals of control group received same amount of gum acacia. At the end of experiment, after 18 hrs, blood was withdrawn from retro orbital plexus and plasma was used for the assay of total cholesterol, phospholipid and triglyceride by standard spectrophotometric method. Results: Administration of triton in rats produced marked hyperlipedemia as observed by the increased levels of plasma cholesterol, phospholipid and triglyceride by 2.92, 3.32, 3.64 folds respectively (Table-1).

[4] = 300 μmol/kg oral day 4 to day 10, plasma on 10th day
[5] = dose 300 (μ)mole/kg, HFD fed hamsters
[6] = 1000 μmol/kg, another set of experiment
[7] = dose 1000 (μ)mole/kg, HFD fed dyslipemic hamsters

COc1ccc(NCCCOc2ccc3ccccc3c2)cc1 [Compound 1, N-(4-Methoxyphenyl)-[3-(naphthalen-2-yloxy)propyl]amine]
per cent change in CHOL [1, 4]: −8 per cent
per cent change in GLU [1, 4]: −31** per cent
per cent change in GLY [1, 4]: −14 per cent
per cent change in HDL [1, 4]: +15 per cent
per cent change in TG [1, 4]: −48** per cent
change in FFA levels [1, 5]: No significant change
increase in plasma HDL [1, 5]: 15%
reduced level of plasma Tg [1, 5]: 48%
reduced level of plasma chol [1, 5]: 8%
reduced level of plasma glucose [1, 5]: 31%
reduced level of plasma glycerol [1, 5]: 14%
lowering on blood glucose in STZ-induced diabetic rats [2]: 28.0%
start of blood glucose lowering post drug administration [2]: 1 h
lowering on OGTT of normal rats (normal rats): 33.6%
% lowering of plasma lipids: Triglyceride [3]: 28%
% lowering of plasma lipids: Cholesterol ([3]; listed as Test Compound 1): 26* %
% lowering of plasma lipids: Phospholipid ([3]; listed as Test Compound 1): 33** %
% lowering of plasma lipids: Triglyceride ([3]; listed as Test Compound 1): 28* %

COc1ccc(Cl)cc1C(=O)NCCc1ccc(S(=O)(=O)NC(=O)NC2CCCCC2)cc1 [Glybenclamide]
lowering on blood glucose in STZ-induced diabetic rats [2]: 32.8%
start of blood glucose lowering post drug administration [2]: 1 h
lowering on OGTT of normal rats (normal rats): 33.9%

CC(C)OC(=O)C(C)(C)Oc1ccc(C(=O)c2ccc(Cl)cc2)cc1 [Fenofibrate]
per cent change in CHOL [1, 6]: −30** per cent
per cent change in FFA [1, 6]: −53** per cent
per cent change in GLU [1, 6]: −33** per cent
per cent change in GLY [1, 6]: −52** per cent
per cent change in HDL [1, 6]: +33** per cent
per cent change in TG [1, 6]: −77** per cent
increase in plasma HDL [1, 7]: 33%
lowering in plasma FFA [1, 7]: 53%
lowering in plasma Tg [1, 7]: 77%
lowering in plasma chol [1, 7]: 30%
lowering in plasma glucose [1, 7]: 33%
lowering in plasma glycerol [1, 7]: 52%

Cc1ccc(S(=O)(=O)NC(=O)NN2CC3CCCC3C2)cc1 (stereo not drawn) [Gliclazide]
lowering on blood glucose in STZ-induced diabetic rats [2]: 27.7%
start of blood glucose lowering post drug administration [2]: 1 h
lowering on OGTT of normal rats (normal rats): 44.8%
